Assay results as given in ChEMBL document CHEMBL4834480, “Discovery of 3,5-Dimethyl-4-Sulfonyl-1H-Pyrrole-Based Myeloid Cell Leukemia 1 Inhibitors with High Affinity, Selectivity, and Oral Bioavailability” (J Med Chem, 2021).
≈ marks a conversion by molar mass, not a printed value. Calls of active or inactive are those of the source. The calls are words filed in the database; no cut-off is given here.

Tests used:
[1] = Stability of the compound in simulated intestinal fluid assessed as parent compound remaining measured after 6 hrs; format: ADME; conditions: read-out: Stabilty
[2] = Intrinsic clearance in human liver microsomes; format: ADME, Microsome; conditions: read-out: CLH
[3] = Stability in human liver microsomes assessed as parent compound remaining preincubated for 5 mins followed by NADPH addition and measured after 30 mins by LC-MS/MS analysis; format: ADME, Microsome; conditions: time 35 min, read-out: Stabilty
[4] = Toxicity in BALB/c nude mouse xenografted with human MV4-11 cells assessed as effect on kidney weight at 60 mg/kg, po administered every two days for 14 days; format: organism-based; conditions: in vivo, 336 h, time 14 day
[5] = AUCt in Sprague-Dawley rat at 10 mg/kg, po measured up to 24 hrs by LC-MS/MS analysis; format: ADME, organism-based; parameters: route oral, dose 10 mg/kg, time <=24; conditions: in vivo
[6] = Tmax in Sprague-Dawley rat at 10 mg/kg, po measured up to 24 hrs by LC-MS/MS analysis; format: ADME, organism-based; conditions: in vivo
[7] = molecular target: T1, Bcl-2-related protein A1 (Homo sapiens) (UniProt Q16548); experiment: Inhibition of FITC-labeled Bak BH3 peptide binding to GST-tagged BFL1 (1 to 151 residues) (unknown origin) expressed in Escherichia coli BL21 (DE3) at 10 uM incubated for 30 mins fluorescence polarization-based competitive binding assay relative to control
T1 sequence (whole entry): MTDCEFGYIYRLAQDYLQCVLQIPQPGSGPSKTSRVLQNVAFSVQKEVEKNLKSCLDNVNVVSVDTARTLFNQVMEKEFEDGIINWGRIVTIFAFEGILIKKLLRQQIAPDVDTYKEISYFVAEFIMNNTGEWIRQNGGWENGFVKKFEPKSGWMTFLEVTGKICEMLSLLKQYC

[8] = Toxicity in BALB/c nude mouse xenografted with human MV4-11 cells assessed as effect on heart at 20 mg/kg, ip administered every two days for 14 days by hematoxyin-eosin staining based analysis; format: organism-based; conditions: in vivo, 336 h, time 14 day
[9] = tested on: NCI-H929; experiment: Induction of apoptosis in human NCI-H929 cells assessed as activation of caspase 3 after 4 hrs by luminescence based microplate reader assay; format: functional, cell-based; conditions: dose microM <=5, time 4.0 hrs
[10] = Water solubility of the compound; format: physicochemical
[11] = tested on: K562; experiment: Induction of apoptosis in human K562 cells assessed as upregulation of cleaved PARP up to 5 uM measured after 48 hrs by Western blot analysis; format: functional, cell-based; conditions: dose microM <=5, time 48.0 hrs
[12] = molecular target: CYP2C19 (Homo sapiens, UniProt P33261); experiment: Inhibition of CYP2C19 (unknown origin) at 10 uM preincubated for 5 min followed by NADPH addition and measured after 20 mins by LC-MS/MS analysis relative to control; format: ADME; conditions: time 25 min
Sequence of CYP2C19 (P33261 whole entry): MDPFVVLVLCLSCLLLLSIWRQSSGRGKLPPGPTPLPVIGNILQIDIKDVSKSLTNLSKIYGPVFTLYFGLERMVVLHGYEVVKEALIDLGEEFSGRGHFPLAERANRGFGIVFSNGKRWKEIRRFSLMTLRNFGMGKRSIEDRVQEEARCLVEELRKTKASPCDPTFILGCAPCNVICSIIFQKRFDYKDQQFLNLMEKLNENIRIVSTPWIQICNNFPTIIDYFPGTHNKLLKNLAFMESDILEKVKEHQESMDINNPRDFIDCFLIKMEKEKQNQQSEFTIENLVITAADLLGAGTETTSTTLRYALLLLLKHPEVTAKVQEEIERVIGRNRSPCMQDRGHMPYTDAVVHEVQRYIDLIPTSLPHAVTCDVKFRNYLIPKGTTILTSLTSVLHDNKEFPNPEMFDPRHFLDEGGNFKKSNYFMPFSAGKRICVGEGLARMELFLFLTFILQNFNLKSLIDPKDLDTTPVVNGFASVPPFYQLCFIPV

[13] = Intrinsic clearance in rat liver microsomes; format: ADME, Microsome; conditions: read-out: CLH
[14] = Stability of the compound in simulated gastric fluid assessed as parent compound remaining measured after 6 hrs; format: ADME; conditions: read-out: Stabilty
[15] = molecular target: Bcl-2-like protein 1 (Homo sapiens, UniProt Q07817); experiment: Binding affinity to human partial length BCL-XL (M1 to R209 residues) expressed in bacterial expression system by BCL2SCAN assay
Sequence of Bcl-2-like protein 1 (Q07817 whole entry, the tested form may be a part): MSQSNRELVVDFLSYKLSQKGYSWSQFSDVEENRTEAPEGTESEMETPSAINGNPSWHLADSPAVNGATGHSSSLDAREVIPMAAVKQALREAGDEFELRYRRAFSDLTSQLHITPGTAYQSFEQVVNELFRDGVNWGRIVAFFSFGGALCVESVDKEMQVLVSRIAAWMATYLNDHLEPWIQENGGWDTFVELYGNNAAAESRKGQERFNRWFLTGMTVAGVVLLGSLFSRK

[16] = tested on: MV4-11; experiment: Induction of apoptosis in human MV4-11 cells xenografted in BALB/c nude mouse assessed as induction of PARP cleavage at 60 mg/kg, po administered every two days for 14 days by Western blot analysis; format: functional, organism-based; conditions: time 14.0 day
[17] = Apparent volume of distribution in Sprague-Dawley rat at 3 mg/kg, iv measured up to 24 hrs by LC-MS/MS analysis; format: ADME, organism-based; conditions: in vivo, read-out: Vz
[18] = Toxicity in BALB/c nude mouse xenografted with human MV4-11 cells assessed as effect on liver weight at 20 mg/kg, ip administered every two days for 14 days; format: organism-based; conditions: in vivo, 336 h, time 14 day
[19] = species: Homo sapiens; experiment: Selectivity ratio of Kd for human partial length BCL2 (M1 to D211 residues) expressed in bacterial expression system to Kd for human partial length MCL1 ([…] to R329 residues) expressed in bacterial expression system
[20] = tested on: K562; experiment: Induction of apoptosis in human K562 cells assessed as activation of caspase 7 up to 5 uM after 4 hrs by luminescence based microplate reader assay; format: functional, cell-based; conditions: dose microM <=5, time 4.0 hrs
[21] = Toxicity in BALB/c nude mouse xenografted with human MV4-11 cells assessed as effect on body weight at 20 mg/kg, ip administered every two days for 14 days; format: organism-based; conditions: in vivo, 336 h, time 14 day
[22] = Apparent volume of distribution in Sprague-Dawley rat at 10 mg/kg, po measured up to 24 hrs by LC-MS/MS analysis; format: ADME, organism-based; conditions: in vivo
[23] = molecular target: CYP2D6 (Homo sapiens, UniProt P10635); experiment: Inhibition of CYP2D6 (unknown origin) at 10 uM preincubated for 5 min followed by NADPH addition and measured after 20 mins by LC-MS/MS analysis relative to control; format: ADME; conditions: time 25 min
Sequence of CYP2D6 (P10635 whole entry): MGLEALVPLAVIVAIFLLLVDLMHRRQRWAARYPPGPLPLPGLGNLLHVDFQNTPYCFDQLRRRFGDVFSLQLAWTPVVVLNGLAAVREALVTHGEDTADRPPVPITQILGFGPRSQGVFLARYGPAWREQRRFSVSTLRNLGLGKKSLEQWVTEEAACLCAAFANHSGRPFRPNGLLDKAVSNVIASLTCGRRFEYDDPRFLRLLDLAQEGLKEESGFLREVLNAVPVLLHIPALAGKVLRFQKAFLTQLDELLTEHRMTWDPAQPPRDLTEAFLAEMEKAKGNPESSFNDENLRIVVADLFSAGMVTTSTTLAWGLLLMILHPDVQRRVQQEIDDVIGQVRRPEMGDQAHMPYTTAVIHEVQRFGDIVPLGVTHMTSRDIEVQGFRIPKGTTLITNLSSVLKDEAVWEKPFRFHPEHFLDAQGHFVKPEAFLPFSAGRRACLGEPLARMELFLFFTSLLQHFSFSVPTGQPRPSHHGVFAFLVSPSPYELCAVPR

[24] = AUCt in Sprague-Dawley rat at 3 mg/kg, iv measured up to 24 hrs by LC-MS/MS analysis; format: ADME, organism-based; parameters: route intravenous, dose 3 mg/kg, time <=24; conditions: in vivo
[25] = tested on: MV4-11; experiment: Antitumor activity against human MV4-11 cells xenografted in BALB/c nude mouse assessed as tumor growth inhibition by measuring T/C ratio at 20 mg/kg, ip administered every two days for 14 days relative to control; format: functional; conditions: time 14 day
[26] = molecular target: Induced myeloid leukemia cell differentiation protein Mcl-1 (Homo sapiens, UniProt Q07820); experiment: Inhibition of FITC-labeled Bak BH3 peptide binding to GST-tagged MCL1 (171 to 327 residues) (unknown origin) expressed in Escherichia coli BL21 (DE3) incubated for 30 mins fluorescence polarization-based competitive binding assay
Sequence of Induced myeloid leukemia cell differentiation protein Mcl-1 (Q07820 whole entry, the tested form may be a part): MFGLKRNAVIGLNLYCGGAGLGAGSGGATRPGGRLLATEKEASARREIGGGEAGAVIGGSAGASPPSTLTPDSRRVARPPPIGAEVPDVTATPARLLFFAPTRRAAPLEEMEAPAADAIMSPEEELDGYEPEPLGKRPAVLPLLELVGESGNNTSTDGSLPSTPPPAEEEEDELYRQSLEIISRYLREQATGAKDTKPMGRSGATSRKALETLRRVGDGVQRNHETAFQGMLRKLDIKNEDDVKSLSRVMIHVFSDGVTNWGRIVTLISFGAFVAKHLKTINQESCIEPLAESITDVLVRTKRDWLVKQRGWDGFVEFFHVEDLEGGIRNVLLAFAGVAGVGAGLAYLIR

[27] = tested on: NCI-H929; experiment: Induction of apoptosis in human NCI-H929 cells assessed as upregulation of cleaved PARP measured after 48 hrs by Western blot analysis; format: functional, cell-based; conditions: dose microM <=5, time 48.0 hrs
[28] = molecular target: T2, Bcl-2-related protein A1 (Homo sapiens, UniProt Q16548); experiment: Binding affinity to human partial length BCL2A1 (M1 to G153 residues) expressed in bacterial expression system by BCL2SCAN assay
T2 sequence (Q16548 whole entry): T1 sequence (whole entry)

[29] = Oral bioavailability in Sprague-Dawley rat at 10 mg/kg measured up to 24 hrs by LC-MS/MS analysis; format: ADME, organism-based; conditions: in vivo
[30] = Toxicity in BALB/c nude mouse xenografted with human MV4-11 cells assessed as effect on kidney at 60 mg/kg, po administered every two days for 14 days by hematoxyin-eosin staining based analysis; format: organism-based; conditions: in vivo, 336 h, time 14 day
[31] = molecular target: Apoptosis regulator Bcl-2 (Homo sapiens, UniProt P10415); experiment: Binding affinity to human partial length BCL2 (M1 to D211 residues) expressed in bacterial expression system by BCL2SCAN assay
Sequence of Apoptosis regulator Bcl-2 (P10415 whole entry, the tested form may be a part): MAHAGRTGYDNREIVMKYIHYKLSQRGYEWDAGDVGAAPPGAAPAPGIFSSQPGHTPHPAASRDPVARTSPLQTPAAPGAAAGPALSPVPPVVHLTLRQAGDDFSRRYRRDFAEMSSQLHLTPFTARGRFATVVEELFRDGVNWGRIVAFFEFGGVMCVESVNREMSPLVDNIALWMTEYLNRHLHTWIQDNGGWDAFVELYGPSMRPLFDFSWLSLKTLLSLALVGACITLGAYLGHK

[32] = Clearance in Sprague-Dawley rat at 10 mg/kg, po measured up to 24 hrs by LC-MS/MS analysis; format: ADME, organism-based; conditions: in vivo
[33] = Toxicity in BALB/c nude mouse xenografted with human MV4-11 cells assessed as effect on liver at 60 mg/kg, po administered every two days for 14 days by hematoxyin-eosin staining based analysis; format: organism-based; conditions: in vivo, 336 h, time 14 day
[34] = tested on: NCI-H929; experiment: Antiproliferative activity against human NCI-H929 cells assessed as decrease in cell viability measured after 72 hrs by MTT assay; format: functional, cell-based; conditions: NCI-H929, 72 h

SMILES: CC(=O)c1ccc(S(=O)(=O)c2c(C)c(C(=O)O)n(CCCOc3cc(C)c(Cl)c(C)c3)c2C)cc1
- remaining at 6 h [1]: 85.2%
- microsomal CLint [2]: 67.5 µL/min/mg
- remaining at 0.5 h [3]: 64%
- Activity [4]: Non-Toxic
- AUC(0-t) at 24 h [5]: 4530 ng·h/mL
- Tmax [6]: 30 min
- inhibition [7]: 1.57%
- Activity [8]: Non-Toxic
- Activity [9]: Dose-Dependent Effect
- solubility [10]: 32.3 µg/mL (≈ 62.4 µM)
- Activity [11]: inactive
- inhibition at 20 min, 10 µM [12]: 2.85%
- microsomal CLint [13]: 31.4 µL/min/mg
- remaining at 6 h [14]: 84.5%
- Kd [15]: > 10 µM
- Activity [16]: Active
- Vd [17]: 3.08 L/kg
- Activity [18]: Non-Toxic
- Selectivity ratio [19]: > 40000
- Activity [20]: inactive
- Activity [21]: Non-Toxic
- Vz [22]: 6.65475 L/kg
- inhibition at 20 min, 10 µM [23]: 9.13%
- AUC(0-t) at 24 h [24]: 3290 ng·h/mL
- T/C [25]: 5.52%
- Ki [26]: 0.02 µM
- Activity [27]: Dose-Dependent Effect
- Kd [28]: > 10 µM
- bioavailability [29]: 41.3%
- Activity [30]: Non-Toxic
- Kd [31]: > 10 µM
- CL/F [32]: 36.8 mL/min/kg
- Activity [33]: Non-Toxic
- IC50 [34]: 0.36 µM
